What was measured:
[1] = molecular target: T1, Human leukocyte elastase (HLE) (Homo sapiens, UniProt P08246); assay: Human leukocyte elastase assay; format: biochemical; details: @ 100 (concentration unit not given)
T1 construct: gift of R. Senior, Washington University
T1 sequence (P08246 30-267): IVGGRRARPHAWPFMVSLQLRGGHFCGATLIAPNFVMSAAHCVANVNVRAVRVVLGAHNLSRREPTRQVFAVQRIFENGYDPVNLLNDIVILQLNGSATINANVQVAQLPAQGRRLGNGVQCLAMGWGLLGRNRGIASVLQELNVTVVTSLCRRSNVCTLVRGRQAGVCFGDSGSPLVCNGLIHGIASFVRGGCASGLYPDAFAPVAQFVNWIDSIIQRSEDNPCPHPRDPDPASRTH
Procedure, shortened: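 HLE in 0.2 M Tris, pH 8.0, was preincubated 30 minutes at ambient temperature with compound in DMSO. The reaction was started with methoxysuccinyl-Ala-Ala-Pro-Val-p-nitroanilide (2.5 mM added solution), and absorbance increase at 405 nm was monitored for 10 minutes.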

HCMV (strain AD169) = assay: HCMV ELISA antiviral assay (viral antigen); format: cell-based, human cytomegalovirus; details: Human betaherpesvirus 5, Fibroblast; HCMV AD169 in human foreskin fibroblasts; value before the slash; unit inferred; read-out: Antiviral Activity Elisa, first value (EC50)
Text: These complimentary assays tested the ability of a compound to inhibit the production of new virus and the toxicity of the compound to she host cells. It was important that both assays be performed simultaneously in order to compare the results directly since, toxicity may indirectly reduce viral yield.
Viral yield was estimated by measuring the amount of a viral antigen produced 4 days post infection with a monoclonal antibody to an abundant “immediate early” viral protein. An enzyme-linked (horseradish peroxidase) secondary antibody specific to the primary (mouse) antibody was urged to measure the amount of viral antigen. Test compounds were diluted to 2-times the desired final concentration in DMEM+5% FBS. One hundred microliters of this solution was placed in each well of a 96-well plate. This was performed once for the antiviral 96-well plate and again for a cytotoxicity plate. Two controls were also included for both plates; a no drug control and a no virus control. Ganciclovir was routinely tested in antiviral and cytotoxicity plates as a reference standard because it has known antiviral activity for HCMV. All cells were prepared by harvesting human foreskin fibroblasts, with trypsin and re-suspending at a concentration of 5×10^5 cells per ml in DMEM. Infected cells were prepared by infecting these with HCMV (strain AD169) at a multiplicity of infection=0.2. One hundred microliters of uninfected cells (5×10^4 cells) were added to the appropriate wells of the cytotoxicity plate. In a similar manner 100 μl of infected cells (5×10^4 cells) were added to the appropriate wells of the antiviral plate. Additionally, uninfected cells not treated with test compound were included as controls on the antiviral plate. Plates were incubated for 96 hours at 37° C. in 5% CO2 atmosphere and processed to measure the amount of viral antigen and toxicity.
The following was performed on the antiviral plate only. Media was removed and cells were fixed with 1:1 acetone:methanol for 15 minutes at −20° C. Fixative was removed and cells were washed once with PBS containing 0.05% Tween20. In order to block nonspecific binding of antibodies, each well was incubated with PBS containing 3% (w/v) bovine serum albumin (BSA) for 1 hour at 22° C. The blocking solution was removed and the cells were washed once with PBS containing 0.05% Tween20 before incubating with 1:100 dilution of primary antibody in PBS containing 3% BSA for 2 hours at 22° C. The primary antibody was a monoclonal antibody (mouse source) specific to the immediate early nuclear antigen of HCMV and was commercially available (Dupont). The 1° antibody solution was removed and the plate was rinsed 5 times with PBS containing 1% (v/v) Triton X-100 (PBST) before incubating with secondary antibody diluted 1:1000 in PBS containing 3% BSA for 2 hours at 22° C. The secondary antibody (goat source) recognized the murine-specific determinants of the 1° antibody and was covalently linked to horseradish peroxidase (Sigma). The plate was rinsed 5 times with PBST and once with deionized water before adding 100 μl TMB substrate solution and incubating 30 minutes at 22° C. The reaction was stopped by adding 100 μL of phosphoric acid and the OD at 450 nm recorded. TMB (3,3′,5,5′ tetramethylbenzidine) was the substrate for the horseradish peroxidase linked to the 2° antibody. It was made from a commercially available kit (Kirkegaard & Perry Laboratories, Inc.). Antiviral activity was calculated by comparing the amount of viral antigen produced in drug treated wells with that produced in wells absent of drug.

[2] = test system: human foreskin fibroblasts
[3] = molecular target: T2, Bovine pancreas α-chymotrypsin (Bos taurus, UniProt P00766, DEL14-15/DEL147-148); assay: Chymotrypsin assay; format: biochemical
T2 construct: Bovine pancreas α-chymotrypsin (type II, Sigma); purchased Sigma type II; host or cells: bovine pancreas
Procedure: The chymotrypsin assay was modified from the method of Delmar et al [Anal. Biochem., 99, 316-320 (1979)]. Bovine pancreas α-chymotrypsin (type II, Sigma) was dissolved in 0.001 N HCl at 1 mg/ml and further diluted 1/600 in assay buffer (0.1 M Tris, pH 7.8, containing 0.1 M CaCl2) before use. 20 μl of test compound in DMSO (or DMSO alone), 100 μl of assay buffer and 30 μl of enzyme were added to […], mixed and pre-incubated for 30 minutes at ambient temperature. Reaction was initiated by addition of 50 Al of 0.2 mM N-succinyl-Ala-Ala-Pro-Phe-p-nitroanilide (Sigma; 2 mM in DMSO diluted 1/10 in assay buffer before use). The increase in absorbance at 405 nm was monitored for 10 minutes with a Biotek EL340 plate reader.

[4] = molecular target: HCMV protease (assemblin) (Human cytomegalovirus, UniProt P16753); assay: Enzymatic assay for HCMV protease (assemblin) inhibitors; format: biochemical
[5] = test system: HCMV engineered virus RC256; assay: microbe, parasite or virus in culture; format: cell-based, human cytomegalovirus; details: Human betaherpesvirus 5, Fibroblast, read-out: Antiviral Activity RC256, first value (EC50)

Chain of HCMV protease (assemblin) (P16753 1-256): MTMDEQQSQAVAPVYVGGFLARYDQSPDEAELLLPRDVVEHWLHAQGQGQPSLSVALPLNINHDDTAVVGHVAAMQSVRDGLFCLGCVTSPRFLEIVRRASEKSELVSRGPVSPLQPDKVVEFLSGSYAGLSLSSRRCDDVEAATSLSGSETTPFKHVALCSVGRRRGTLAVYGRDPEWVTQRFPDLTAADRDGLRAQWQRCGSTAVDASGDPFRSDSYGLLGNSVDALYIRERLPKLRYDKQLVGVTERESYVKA

Compound | HLE, % @ concentration [1] [% @ 100] | EC50 (HCMV (strain AD169)) [µM] | Antiviral Activity RC256, second value (cytotoxicity) [2] | also measured
COCC(=O)Nc1ccc2nc(N[C@@H](Cc3ccccc3)C(=O)OC)oc(=O)c2c1C [Example 11c, N-[6-[[(Methoxymethyl)carbonyl]amino]-5-methyl-4-oxo-4H-3,1-benzoxazin-2-yl]-L-phenylalanine, methyl ester] | 83 | 77 | – | –
3,5-Diiodo-N-(5-methyl-(3,5-diiodo)2-yl)-L-tyrosine, methyl ester [Example 1q] | – | – | 70 | –
1,1-Dimethylethyl[2-[[1S-[(4-methoxyphenyl)methyl]-2-oxo-2-[[2-(2-pyridinyl)ethyl]amino]ethyl]amino]-5-methyl-4-oxo-4H-3,1-benzoxazin-6-yl]carbamate [Example 6hh] | – | – | 60 | Chymotrypsin, % @ concentration ([3]; @ 10 (concentration unit not given)): 21% @ 10
Cc1c(NC(=O)CN(C)C)ccc2nc(N[C@@H](C)c3ccccc3)oc(=O)c12 [Example 11m, 5-Methyl-6-[[(dimethylaminomethyl)carbonyl]amino]-2-[[(1S)-phenylethyl]amino]-4H-3,1-benzoxazin-4-one] | 37 | 88 | – | Assemblin Protease, % @ concentration ([4]; @ 1 (concentration unit not given)): 67% @ 1.0
COc1ccc(C[C@H](Nc2nc3ccc(NC(=O)Oc4ccccc4)c(C)c3c(=O)o2)C(=O)N(C)Cc2ccccc2)cc1 [Example 11q, Phenyl[2-[[1S-[(4-methoxyphenyl)methyl]-2-[methyl(phenylmethyl)amino]-2-oxcethyl]amino]-5-methyl-4H-3,1-benzoxazin-6-yl]carbamate] | – | – | – | IC50 [4]: 600 nM; EC50 [5]: 18 µM; IC50 [3]: 2400 nM
COC(=O)[C@H](Cc1cscn1)Nc1nc2ccc(NC(=O)OC(C)(C)C)c(C)c2c(=O)o1 [Example 6e, N-[6-[[(1,1-Dimethylethoxy)carbonyl]amino]-5-methyl-4-oxo-4H-3,1-benzoxazin-2-yl]-L-thiazol-4-yl-alanine, methyl ester] | – | 58 | – | –

Source: patent publication US6683077B2, “2-Amino-benzoxazinones for the treatment of viral infections” (G.D. Searle & Co., priority 1996, dated 2004)
